Literature values as cited in publication PMC6597953, “Taking Advantage of the Selectivity of Histone Deacetylases and Phosphodiesterase Inhibitors to Design Better Therapeutic Strategies to Treat Alzheimer’s Disease” (Frontiers in Aging Neuroscience, 2019).

How the values were obtained:
Assay type in all cases: biochemical
[1] = molecular target: HDAC1 (Homo sapiens, UniProt Q13547); assay: IC50 of HDAC1 inhibition (assay not described); AcH3K9 western blot in SH-SY5Y cells at […]
[2] = molecular target: T1, HDAC6 (Homo sapiens, UniProt Q9UBN7); assay: IC50 of HDAC6 inhibition (assay not described); supported by alpha-tubulin acetylation western blot in SH-SY5Y cells
T1 sequence (Q9UBN7 1-1215): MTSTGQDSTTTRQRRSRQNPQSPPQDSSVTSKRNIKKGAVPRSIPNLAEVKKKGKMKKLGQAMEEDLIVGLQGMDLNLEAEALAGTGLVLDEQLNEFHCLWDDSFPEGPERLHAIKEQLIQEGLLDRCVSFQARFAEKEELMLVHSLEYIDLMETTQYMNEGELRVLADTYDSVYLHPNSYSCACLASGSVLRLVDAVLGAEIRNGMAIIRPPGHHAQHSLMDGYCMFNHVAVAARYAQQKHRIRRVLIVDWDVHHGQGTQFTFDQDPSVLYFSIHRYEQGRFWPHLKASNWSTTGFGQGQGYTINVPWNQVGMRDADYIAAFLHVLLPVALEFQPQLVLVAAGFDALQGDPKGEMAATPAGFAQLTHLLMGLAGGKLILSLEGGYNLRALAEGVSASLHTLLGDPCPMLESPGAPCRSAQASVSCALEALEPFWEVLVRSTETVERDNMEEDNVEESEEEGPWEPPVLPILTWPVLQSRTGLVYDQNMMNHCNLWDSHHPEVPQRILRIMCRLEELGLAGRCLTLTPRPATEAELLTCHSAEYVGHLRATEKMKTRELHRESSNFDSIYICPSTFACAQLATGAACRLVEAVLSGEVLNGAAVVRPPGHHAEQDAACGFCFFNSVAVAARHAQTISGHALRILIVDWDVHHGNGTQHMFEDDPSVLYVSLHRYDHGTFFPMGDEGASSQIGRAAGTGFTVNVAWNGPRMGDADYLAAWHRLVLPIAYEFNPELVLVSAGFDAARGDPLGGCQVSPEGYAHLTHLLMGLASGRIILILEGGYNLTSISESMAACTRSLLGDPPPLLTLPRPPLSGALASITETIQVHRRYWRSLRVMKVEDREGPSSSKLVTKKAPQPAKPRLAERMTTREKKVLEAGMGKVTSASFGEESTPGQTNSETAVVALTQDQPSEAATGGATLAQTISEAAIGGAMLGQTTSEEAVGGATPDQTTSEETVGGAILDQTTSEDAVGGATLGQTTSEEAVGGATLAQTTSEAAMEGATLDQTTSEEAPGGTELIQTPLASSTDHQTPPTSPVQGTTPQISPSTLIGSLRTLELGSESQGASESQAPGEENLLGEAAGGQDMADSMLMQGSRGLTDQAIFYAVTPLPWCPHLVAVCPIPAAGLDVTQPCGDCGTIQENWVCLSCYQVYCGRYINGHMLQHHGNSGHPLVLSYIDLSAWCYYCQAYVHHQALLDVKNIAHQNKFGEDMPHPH

[3] = molecular target: HDAC2 (Homo sapiens, UniProt Q92769); assay: IC50 of HDAC2 inhibition (assay not described)
[4] = molecular target: T2, PDE9 (Homo sapiens, UniProt O76083); assay: IC50 of PDE9 inhibition (assay not described); supported by pCREB western blot in SH-SY5Y cells
T2 construct: gene PDE9A
T2 sequence (O76083 whole entry): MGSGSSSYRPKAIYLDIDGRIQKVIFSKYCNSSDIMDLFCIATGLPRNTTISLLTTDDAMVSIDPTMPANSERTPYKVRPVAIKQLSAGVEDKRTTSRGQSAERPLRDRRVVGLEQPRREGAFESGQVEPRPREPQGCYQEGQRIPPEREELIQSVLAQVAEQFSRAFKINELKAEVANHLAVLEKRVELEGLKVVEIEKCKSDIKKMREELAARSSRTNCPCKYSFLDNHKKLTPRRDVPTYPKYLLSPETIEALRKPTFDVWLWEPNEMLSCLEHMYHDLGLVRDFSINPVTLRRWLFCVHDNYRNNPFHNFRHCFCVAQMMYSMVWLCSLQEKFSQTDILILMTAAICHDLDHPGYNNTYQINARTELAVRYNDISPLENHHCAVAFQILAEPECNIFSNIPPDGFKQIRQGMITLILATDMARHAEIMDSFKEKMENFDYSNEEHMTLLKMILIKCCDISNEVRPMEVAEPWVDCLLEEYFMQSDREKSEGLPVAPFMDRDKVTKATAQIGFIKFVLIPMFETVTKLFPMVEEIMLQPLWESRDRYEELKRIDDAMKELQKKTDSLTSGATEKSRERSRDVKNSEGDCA

HDAC1, sequence (Q13547 whole entry): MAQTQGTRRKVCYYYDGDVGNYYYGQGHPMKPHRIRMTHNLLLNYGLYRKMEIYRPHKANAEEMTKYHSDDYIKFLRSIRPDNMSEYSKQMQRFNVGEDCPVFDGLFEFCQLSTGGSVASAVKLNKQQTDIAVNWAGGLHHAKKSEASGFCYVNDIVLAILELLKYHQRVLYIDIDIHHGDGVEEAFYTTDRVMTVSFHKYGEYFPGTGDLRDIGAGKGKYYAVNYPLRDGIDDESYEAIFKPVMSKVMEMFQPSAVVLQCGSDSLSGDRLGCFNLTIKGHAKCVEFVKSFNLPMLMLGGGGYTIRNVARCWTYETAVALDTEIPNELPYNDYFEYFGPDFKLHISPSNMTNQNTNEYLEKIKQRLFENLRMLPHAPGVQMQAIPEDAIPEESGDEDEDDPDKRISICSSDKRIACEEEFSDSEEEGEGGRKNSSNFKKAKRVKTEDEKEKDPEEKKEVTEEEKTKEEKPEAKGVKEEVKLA
HDAC2, sequence (Q92769 whole entry): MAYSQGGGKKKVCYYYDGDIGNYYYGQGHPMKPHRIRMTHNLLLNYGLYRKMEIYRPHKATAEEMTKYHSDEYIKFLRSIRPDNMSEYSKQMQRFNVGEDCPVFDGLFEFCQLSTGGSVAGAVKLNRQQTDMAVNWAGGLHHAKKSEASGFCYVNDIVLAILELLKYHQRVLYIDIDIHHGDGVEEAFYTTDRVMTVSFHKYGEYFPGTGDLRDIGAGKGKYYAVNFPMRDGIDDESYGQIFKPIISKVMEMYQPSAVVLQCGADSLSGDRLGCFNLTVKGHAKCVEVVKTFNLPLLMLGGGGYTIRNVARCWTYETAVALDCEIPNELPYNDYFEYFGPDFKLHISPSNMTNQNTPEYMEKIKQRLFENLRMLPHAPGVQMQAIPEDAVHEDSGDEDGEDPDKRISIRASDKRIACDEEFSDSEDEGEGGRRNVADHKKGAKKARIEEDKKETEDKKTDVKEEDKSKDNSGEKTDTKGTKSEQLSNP

## CM-695
[1]
  IC50: 593 nM
[2]
  IC50: 40 nM
[3]
  IC50: 3530 nM
[4]
  IC50: 107 nM
